Measured values: ChEMBL document CHEMBL5291721, “A preclinical secondary pharmacology resource illuminates target-adverse drug reaction associations of marketed drugs” (Nat Commun, 2023)

How the values were obtained:
[1] = target: Beta-2 adrenergic receptor (Homo sapiens, UniProt P07550); assay type: functional, cell-based
Glucocorticoid receptor = target: T1, Glucocorticoid receptor (Homo sapiens, UniProt P04150)
T1 sequence (P04150 whole entry): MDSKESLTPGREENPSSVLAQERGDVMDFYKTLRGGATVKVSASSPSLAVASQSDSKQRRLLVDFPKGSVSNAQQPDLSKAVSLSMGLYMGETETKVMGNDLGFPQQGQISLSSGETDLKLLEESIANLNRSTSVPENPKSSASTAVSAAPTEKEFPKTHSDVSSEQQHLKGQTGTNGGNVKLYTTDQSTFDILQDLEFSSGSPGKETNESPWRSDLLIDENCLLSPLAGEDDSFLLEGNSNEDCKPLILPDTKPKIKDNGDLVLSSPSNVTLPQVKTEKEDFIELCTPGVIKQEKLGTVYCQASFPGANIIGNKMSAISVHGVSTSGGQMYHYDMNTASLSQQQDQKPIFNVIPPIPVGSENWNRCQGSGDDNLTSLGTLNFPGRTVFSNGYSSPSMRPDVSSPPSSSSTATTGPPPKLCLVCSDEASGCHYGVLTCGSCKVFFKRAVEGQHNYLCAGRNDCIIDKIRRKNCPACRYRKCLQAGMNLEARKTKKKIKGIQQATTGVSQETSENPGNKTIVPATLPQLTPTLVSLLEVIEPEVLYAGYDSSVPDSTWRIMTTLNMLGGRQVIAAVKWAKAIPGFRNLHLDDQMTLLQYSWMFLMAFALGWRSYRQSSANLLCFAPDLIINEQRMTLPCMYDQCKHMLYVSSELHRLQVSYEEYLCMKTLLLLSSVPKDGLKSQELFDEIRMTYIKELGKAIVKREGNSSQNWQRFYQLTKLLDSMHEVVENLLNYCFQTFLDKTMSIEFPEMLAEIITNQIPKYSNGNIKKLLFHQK

[2] = target: Sodium-dependent noradrenaline transporter (Homo sapiens, UniProt P23975)
Progesterone receptor = target: T2, Progesterone receptor (Homo sapiens, UniProt P06401)
T2 sequence (P06401 whole entry): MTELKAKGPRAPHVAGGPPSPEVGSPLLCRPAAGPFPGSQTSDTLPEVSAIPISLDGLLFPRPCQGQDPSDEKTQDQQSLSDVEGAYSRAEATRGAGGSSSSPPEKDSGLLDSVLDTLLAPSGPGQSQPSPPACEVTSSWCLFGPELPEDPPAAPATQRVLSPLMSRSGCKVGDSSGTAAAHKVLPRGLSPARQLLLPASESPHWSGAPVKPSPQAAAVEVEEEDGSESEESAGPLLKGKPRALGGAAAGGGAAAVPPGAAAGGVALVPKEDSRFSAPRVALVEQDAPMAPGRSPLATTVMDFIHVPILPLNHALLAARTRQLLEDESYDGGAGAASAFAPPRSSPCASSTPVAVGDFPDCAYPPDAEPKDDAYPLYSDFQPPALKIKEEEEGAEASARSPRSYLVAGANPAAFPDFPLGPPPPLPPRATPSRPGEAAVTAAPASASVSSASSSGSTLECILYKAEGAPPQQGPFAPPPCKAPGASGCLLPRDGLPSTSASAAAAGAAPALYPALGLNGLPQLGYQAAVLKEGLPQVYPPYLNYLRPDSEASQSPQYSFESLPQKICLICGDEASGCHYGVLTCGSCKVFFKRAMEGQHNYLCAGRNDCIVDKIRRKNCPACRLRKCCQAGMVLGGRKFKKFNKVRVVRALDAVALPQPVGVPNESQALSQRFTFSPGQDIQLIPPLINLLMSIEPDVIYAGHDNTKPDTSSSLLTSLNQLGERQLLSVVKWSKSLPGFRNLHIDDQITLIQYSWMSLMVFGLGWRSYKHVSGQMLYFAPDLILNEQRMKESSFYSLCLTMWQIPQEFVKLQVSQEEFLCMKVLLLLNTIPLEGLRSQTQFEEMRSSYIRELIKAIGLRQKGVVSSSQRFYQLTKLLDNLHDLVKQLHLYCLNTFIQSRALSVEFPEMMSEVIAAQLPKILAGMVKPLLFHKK

[3] = target: T3, Alpha-1A adrenergic receptor (Homo sapiens, UniProt P35348)
T3 sequence (P35348 whole entry): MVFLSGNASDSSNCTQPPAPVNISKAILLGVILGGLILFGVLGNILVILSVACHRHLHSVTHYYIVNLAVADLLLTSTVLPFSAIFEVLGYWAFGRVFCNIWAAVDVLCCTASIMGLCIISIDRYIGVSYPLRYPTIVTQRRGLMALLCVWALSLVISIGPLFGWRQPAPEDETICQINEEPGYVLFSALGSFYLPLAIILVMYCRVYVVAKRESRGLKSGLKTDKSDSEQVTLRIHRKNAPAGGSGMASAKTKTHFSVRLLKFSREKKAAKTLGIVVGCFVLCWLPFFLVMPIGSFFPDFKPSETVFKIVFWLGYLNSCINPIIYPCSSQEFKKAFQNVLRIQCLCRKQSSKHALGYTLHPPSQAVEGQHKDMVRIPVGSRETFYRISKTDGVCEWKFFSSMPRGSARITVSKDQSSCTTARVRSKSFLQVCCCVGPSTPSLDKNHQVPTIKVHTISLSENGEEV

B1 bradykinin receptor = target: T4, B1 bradykinin receptor (Homo sapiens, UniProt P46663)
T4 sequence (P46663 whole entry): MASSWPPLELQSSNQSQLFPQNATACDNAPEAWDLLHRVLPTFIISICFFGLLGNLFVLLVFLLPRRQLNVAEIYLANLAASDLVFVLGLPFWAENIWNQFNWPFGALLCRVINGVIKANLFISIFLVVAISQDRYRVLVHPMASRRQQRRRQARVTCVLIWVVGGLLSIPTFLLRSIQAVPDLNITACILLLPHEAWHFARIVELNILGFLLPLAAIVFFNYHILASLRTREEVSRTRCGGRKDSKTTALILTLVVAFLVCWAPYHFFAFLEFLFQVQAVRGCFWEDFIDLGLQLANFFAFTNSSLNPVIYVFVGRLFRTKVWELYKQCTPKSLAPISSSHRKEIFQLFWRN

[4] = target: Voltage-dependent N-type calcium channel subunit alpha-1B (Rattus norvegicus, UniProt Q02294); assay type: functional
Note: assay procedure not described here.

Sodium-dependent noradrenaline transporter, sequence (P23975 whole entry): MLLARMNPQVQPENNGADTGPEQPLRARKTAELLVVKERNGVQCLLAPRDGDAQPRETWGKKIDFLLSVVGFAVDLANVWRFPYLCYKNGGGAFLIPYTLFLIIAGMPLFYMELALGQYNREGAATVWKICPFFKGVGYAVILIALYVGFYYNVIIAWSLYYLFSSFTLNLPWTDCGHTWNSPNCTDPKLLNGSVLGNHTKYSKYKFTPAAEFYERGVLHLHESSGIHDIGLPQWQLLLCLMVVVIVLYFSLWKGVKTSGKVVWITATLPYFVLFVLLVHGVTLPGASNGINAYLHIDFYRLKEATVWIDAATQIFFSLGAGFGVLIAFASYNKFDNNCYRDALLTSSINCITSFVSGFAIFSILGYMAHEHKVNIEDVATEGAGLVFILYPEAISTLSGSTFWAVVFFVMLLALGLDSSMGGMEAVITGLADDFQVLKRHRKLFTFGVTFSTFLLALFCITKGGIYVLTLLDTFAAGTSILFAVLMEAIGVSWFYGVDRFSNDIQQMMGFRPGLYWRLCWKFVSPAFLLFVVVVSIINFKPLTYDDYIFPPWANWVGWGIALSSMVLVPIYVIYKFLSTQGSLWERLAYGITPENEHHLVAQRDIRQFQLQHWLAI
Beta-2 adrenergic receptor, sequence (P07550 whole entry): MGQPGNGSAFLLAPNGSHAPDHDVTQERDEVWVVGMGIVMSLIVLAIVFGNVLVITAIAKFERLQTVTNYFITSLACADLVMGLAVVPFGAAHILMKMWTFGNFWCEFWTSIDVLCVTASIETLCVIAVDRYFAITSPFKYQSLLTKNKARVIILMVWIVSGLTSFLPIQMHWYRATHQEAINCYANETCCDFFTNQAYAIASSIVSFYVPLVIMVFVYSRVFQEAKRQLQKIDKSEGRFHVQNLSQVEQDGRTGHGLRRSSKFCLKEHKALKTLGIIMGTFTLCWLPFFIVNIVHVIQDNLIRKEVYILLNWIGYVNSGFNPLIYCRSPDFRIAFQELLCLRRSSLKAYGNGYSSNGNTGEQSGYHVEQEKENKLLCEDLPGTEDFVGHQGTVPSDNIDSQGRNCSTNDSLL
Voltage-dependent N-type calcium channel subunit alpha-1B, sequence (Q02294 whole entry): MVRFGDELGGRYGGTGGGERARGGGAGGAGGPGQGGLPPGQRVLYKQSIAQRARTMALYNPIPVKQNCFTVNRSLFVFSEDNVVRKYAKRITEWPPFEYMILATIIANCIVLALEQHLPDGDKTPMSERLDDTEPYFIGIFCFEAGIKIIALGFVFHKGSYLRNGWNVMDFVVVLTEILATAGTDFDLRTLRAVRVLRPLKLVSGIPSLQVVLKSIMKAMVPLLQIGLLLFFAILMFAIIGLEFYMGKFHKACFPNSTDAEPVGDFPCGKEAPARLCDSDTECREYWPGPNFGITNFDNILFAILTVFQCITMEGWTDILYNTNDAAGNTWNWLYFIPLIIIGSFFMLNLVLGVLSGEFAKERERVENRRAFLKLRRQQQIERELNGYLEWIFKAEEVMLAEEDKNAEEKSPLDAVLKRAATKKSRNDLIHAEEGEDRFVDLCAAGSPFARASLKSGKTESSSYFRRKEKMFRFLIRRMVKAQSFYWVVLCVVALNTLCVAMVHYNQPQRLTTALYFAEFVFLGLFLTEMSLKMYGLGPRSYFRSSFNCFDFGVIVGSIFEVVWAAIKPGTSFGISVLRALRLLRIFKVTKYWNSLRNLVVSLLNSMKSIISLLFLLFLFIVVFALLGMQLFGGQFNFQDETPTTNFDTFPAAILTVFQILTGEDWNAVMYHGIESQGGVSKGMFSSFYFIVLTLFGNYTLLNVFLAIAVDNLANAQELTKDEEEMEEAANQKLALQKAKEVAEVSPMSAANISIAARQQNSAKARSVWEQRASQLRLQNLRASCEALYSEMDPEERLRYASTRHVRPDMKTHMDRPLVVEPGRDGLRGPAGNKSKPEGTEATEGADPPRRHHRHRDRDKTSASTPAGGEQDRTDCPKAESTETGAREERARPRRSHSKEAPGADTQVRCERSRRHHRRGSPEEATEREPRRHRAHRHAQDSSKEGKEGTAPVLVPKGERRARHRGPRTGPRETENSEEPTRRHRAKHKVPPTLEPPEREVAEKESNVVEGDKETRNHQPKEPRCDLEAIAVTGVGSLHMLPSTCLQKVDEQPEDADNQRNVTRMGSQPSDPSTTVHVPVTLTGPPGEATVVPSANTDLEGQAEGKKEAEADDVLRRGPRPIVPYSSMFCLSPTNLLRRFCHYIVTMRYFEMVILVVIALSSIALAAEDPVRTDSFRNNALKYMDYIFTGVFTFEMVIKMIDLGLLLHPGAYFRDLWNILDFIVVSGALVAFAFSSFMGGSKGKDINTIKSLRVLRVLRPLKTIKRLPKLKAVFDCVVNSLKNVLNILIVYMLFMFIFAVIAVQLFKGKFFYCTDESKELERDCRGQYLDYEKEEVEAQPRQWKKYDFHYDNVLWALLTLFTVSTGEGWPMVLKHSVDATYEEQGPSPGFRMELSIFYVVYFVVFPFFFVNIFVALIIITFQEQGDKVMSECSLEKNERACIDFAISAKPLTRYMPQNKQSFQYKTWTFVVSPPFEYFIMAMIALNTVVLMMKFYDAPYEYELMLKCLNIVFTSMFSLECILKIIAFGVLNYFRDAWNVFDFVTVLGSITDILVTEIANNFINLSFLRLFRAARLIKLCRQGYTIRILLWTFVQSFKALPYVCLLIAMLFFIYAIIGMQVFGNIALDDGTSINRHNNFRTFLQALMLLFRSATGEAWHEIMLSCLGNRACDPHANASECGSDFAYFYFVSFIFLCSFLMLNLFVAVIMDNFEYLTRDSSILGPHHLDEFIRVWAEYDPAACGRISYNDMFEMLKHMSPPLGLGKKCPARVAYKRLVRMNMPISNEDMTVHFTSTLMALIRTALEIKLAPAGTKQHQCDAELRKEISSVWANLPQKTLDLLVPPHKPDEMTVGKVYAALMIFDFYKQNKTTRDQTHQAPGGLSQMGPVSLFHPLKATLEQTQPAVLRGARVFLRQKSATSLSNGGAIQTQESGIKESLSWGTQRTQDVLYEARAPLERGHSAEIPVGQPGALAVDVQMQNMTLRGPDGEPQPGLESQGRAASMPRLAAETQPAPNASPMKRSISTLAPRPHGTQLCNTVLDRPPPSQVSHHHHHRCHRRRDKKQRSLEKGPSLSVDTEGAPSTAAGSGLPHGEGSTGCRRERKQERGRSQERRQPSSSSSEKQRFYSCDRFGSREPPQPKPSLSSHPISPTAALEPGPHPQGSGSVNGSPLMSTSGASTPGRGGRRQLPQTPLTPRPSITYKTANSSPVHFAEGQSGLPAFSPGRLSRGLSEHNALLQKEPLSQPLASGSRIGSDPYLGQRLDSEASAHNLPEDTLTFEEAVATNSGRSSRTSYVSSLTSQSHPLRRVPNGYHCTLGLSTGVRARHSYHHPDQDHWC

CO/N=C(\C(=O)N[C@@H]1C(=O)N2C(C(=O)[O-])=C(C[n+]3cccc4c3CCC4)CS[C@H]12)c1csc(N)n1 [CEFPIROME]
AC50 [1]: > 30 µM

CC(C)=CCOc1ccc(/C=C/C(=O)c2ccc(OCC=C(C)C)cc2OCC(=O)O)cc1 [SOFALCONE]
AC50 (Glucocorticoid receptor): > 30 µM | AC50 [2]: 26 µM

C[C@]12CC[C@H](O)CC1=CC[C@@H]1[C@@H]2CC[C@]2(C)C(c3cccnc3)=CC[C@@H]12 [ABIRATERONE]
AC50 (Progesterone receptor): > 30 µM | AC50 (Glucocorticoid receptor): > 30 µM | AC50 [2]: > 30 µM

CCn1cc(C(=O)O)c(=O)c2cc(F)c(N3CCNCC3)nc21 [ENOXACIN]
AC50 (Progesterone receptor): > 30 µM | AC50 [3]: > 10 µM | AC50 (B1 bradykinin receptor): > 30 µM | AC50 [2]: > 10 µM | AC50 [4]: > 10 µM

CC(=O)OCC[N+](C)(C)C [ACETYLCHOLINE]
AC50 (Progesterone receptor): > 30 µM | AC50 (Glucocorticoid receptor): > 30 µM | AC50 [3]: > 10 µM | AC50 (B1 bradykinin receptor): > 30 µM | AC50 [2]: > 30 µM | AC50 [4]: > 10 µM

Oc1c(I)cc(Cl)c2cccnc12 [CLIOQUINOL]
AC50 [1]: > 10 µM

CN(C)c1cc(NC(=O)CNC(C)(C)C)c(O)c2c1C[C@H]1C[C@H]3[C@H](N(C)C)C(O)=C(C(N)=O)C(=O)[C@@]3(O)C(O)=C1C2=O [TIGECYCLINE]
AC50 (Glucocorticoid receptor): > 30 µM | AC50 [2]: > 30 µM

COCCCOc1ccnc(C[S+]([O-])c2nc3ccccc3[nH]2)c1C (centres undefined) [RABEPRAZOLE]
AC50 (Progesterone receptor): > 30 µM | AC50 (Glucocorticoid receptor): > 30 µM | AC50 [3]: 4.98 µM | AC50 (B1 bradykinin receptor): > 30 µM | AC50 [2]: > 10 µM | AC50 [4]: > 10 µM

NS(=O)(=O)c1cc(C2(O)NC(=O)c3ccccc32)ccc1Cl (centres undefined) [CHLORTHALIDONE]
AC50 (Glucocorticoid receptor): > 10 µM | AC50 [2]: > 10 µM

C[C@]1(COc2ccc(N3CCC(Oc4ccc(OC(F)(F)F)cc4)CC3)cc2)Cn2cc([N+](=O)[O-])nc2O1
AC50 (Progesterone receptor): > 30 µM | AC50 (Glucocorticoid receptor): > 30 µM | AC50 [3]: > 10 µM | AC50 (B1 bradykinin receptor): > 30 µM | AC50 [2]: > 10 µM | AC50 [4]: > 10 µM

COc1ccc2c(c1)[C@]13CCCC[C@@H]1[C@H](C2)N(C)CC3 [DEXTROMETHORPHAN]
AC50 (Progesterone receptor): > 30 µM | AC50 (Glucocorticoid receptor): > 30 µM | AC50 [3]: 5.22 µM | AC50 (B1 bradykinin receptor): > 30 µM | AC50 [4]: > 10 µM

CC[C@H]1OC(=O)[C@H](C)[C@@H](O[C@H]2C[C@@](C)(OC)[C@@H](O)[C@H](C)O2)[C@H](C)[C@@H](O[C@@H]2O[C@H](C)C[C@H](N(C)C)[C@H]2O)[C@](C)(OC)C[C@@H](C)C(=O)[C@H](C)[C@@H](O)[C@]1(C)O [CLARITHROMYCIN]
AC50 [1]: > 30 µM | AC50 (Glucocorticoid receptor): > 30 µM | AC50 [2]: > 30 µM

O=C(O)CSCC(=O)NC1CCSC1=O (centres undefined) [ERDOSTEINE]
AC50 [2]: > 30 µM

CNC(=O)Oc1ccc2c(c1)[C@]1(C)CCN(C)[C@@H]1N2C [PHYSOSTIGMINE]
AC50 [1]: > 30 µM | AC50 (Glucocorticoid receptor): > 30 µM | AC50 [2]: > 30 µM

C[C@@H]1CCC[C@H](C)N1NC(=O)c1ccc(Cl)c(S(N)(=O)=O)c1 [CLOPAMIDE]
AC50 (Glucocorticoid receptor): > 30 µM | AC50 [2]: > 30 µM

COc1cccc(N(C)C(=S)Oc2ccc3c(c2)CCCC3)n1 [LIRANAFTATE]
AC50 [2]: > 30 µM

O=C(CCCN1CCC2(CC1)C(=O)NCN2c1ccccc1)c1ccc(F)cc1 [SPIPERONE]
AC50 [1]: > 30 µM | AC50 (Glucocorticoid receptor): > 30 µM

NS(=O)(=O)c1cc(C(=O)O)cc(N2CCCC2)c1Oc1ccccc1 [PIRETANIDE]
AC50 (Glucocorticoid receptor): > 30 µM | AC50 [2]: > 30 µM

O=C(Nc1nc(-c2cc(Cl)cs2)c(N2CCN(C3CCCCC3)CC2)s1)c1cnc(N2CCC(C(=O)O)CC2)c(Cl)c1 [AVATROMBOPAG]
AC50 [3]: > 10 µM | AC50 (B1 bradykinin receptor): > 10 µM | AC50 [2]: > 10 µM | AC50 [4]: > 10 µM

C#C[C@]1(O)CC[C@H]2[C@@H]3CCc4cc(OC)ccc4[C@H]3CC[C@@]21C [MESTRANOL]
AC50 (Glucocorticoid receptor): 0.516 µM | AC50 [2]: 10.9 µM

OCCN1CCN(CC/C=C2/c3ccccc3Sc3ccc(Cl)cc32)CC1 [ZUCLOPENTHIXOL]
AC50 (Glucocorticoid receptor): > 10 µM | AC50 [2]: 17.4 µM

O=C(O)c1cc(O)c2c3nc4ccccc4oc-3cc(=O)c2n1 [PIRENOXINE]
AC50 (Glucocorticoid receptor): > 30 µM | AC50 [2]: > 30 µM

CNCCCC1c2ccccc2C=Cc2ccccc21 [PROTRIPTYLINE]
AC50 (Glucocorticoid receptor): > 10 µM

O=c1oc2ccccc2c(O)c1Cc1c(O)c2ccccc2oc1=O [DICUMAROL]
AC50 [2]: > 10 µM

CO[C@@]1(NC(=O)CSCC#N)C(=O)N2C(C(=O)O)=C(CSc3nnnn3C)CS[C@@H]21 [CEFMETAZOLE]
AC50 [1]: > 30 µM

CCSc1ccc2c(c1)N(CCCN1CCN(C)CC1)c1ccccc1S2 [THIETHYLPERAZINE]
AC50 [2]: 9.6 µM

C[C@H]1C[C@H]2[C@@H]3CCC4=CC(=O)C=C[C@]4(C)[C@@]3(Cl)[C@@H](O)C[C@]2(C)[C@@]1(O)C(=O)CO [BECLOMETHASONE]
AC50 (Progesterone receptor): > 30 µM | AC50 [3]: > 10 µM | AC50 (B1 bradykinin receptor): > 30 µM | AC50 [2]: > 10 µM | AC50 [4]: > 10 µM

CN(C)C(=O)Oc1cc(OC(=O)N(C)C)cc(C(O)CNC(C)(C)C)c1 (centres undefined) [BAMBUTEROL]
AC50 (Glucocorticoid receptor): > 30 µM | AC50 [2]: > 30 µM
